“Also recorded” adds a separate entry of the source. Where no end group is shown, it is not given here.
Test system: anti-Sm and anti-nRNP precipitin sera (IgG)
Assay: Solid phase antipeptide assay of Sm B/B' and related peptides with Sm, nRNP precipitin positive sera
Assay type: binding, human
Conditions: deletion peptides, six patient sera
Protocol: Sera. Human sera form patients who satisfied the classification criteria of the American Rheumatism Association for SLE or normal age-matched, sex-matched controls were used in this study. Fifteen sera from lupus patients were tested. Ten of these sera tested contained antibodies that formed strong precipitin lines with both Sm and nRNP, three formed precipitin lines with only nRNP, one formed a precipitin line with Ro/SSA and La/SSB, and one formed a precipitin line with only Ro/SSA. All of these serologic findings were confirmed by appropriate molecular weight bands for the reported antigen being bound in immunoblot by the respective sera.
Solid-phase noncleavable peptide synthesis. The published sequence of Sm B/B′ was used to construct all the possible overlapping octapeptides. The amino acids used for peptide synthesis had Fmoc protected primary amino groups and t-butyl (or other appropriate group) protected side chains. Overlapping octapeptides were simultaneously synthesized at the rounded ends of radiation derivatized polyethylene pins that were arranged in the format of a 96 well microliter plate (Cambridge Research Biochemicals. Cambridge, UK and Coselco Mimotopes Pty Ltd. Victoria, Australia) The active esters of Fmoc, t-butyl amino acid solutions (30 mM) were solubilized in DMF that had […] added to a final concentration of 30 mM and dispensed into the wells of a microliter plate. Each amino acid was added as determined by the 240 amino acids of the Raji Sm B/B′ sequence. After 18 h of incubation, the pins were washed in DMF for 5 min. four times at 2 min each in methanol, and once again in DMF for 5 min. The Fmoc protecting groups were then removed from the newly added amino acid by a 20% piperidine/DMF bath for 30 min. These steps were repeated until all eight amino acids were added. After the final amino acid, the amino terminal groups of each peptide was acetylated by incubating the pins in a 5:2:1 (v/v/v) mixture of DMF:acetic anhydride: triethylamine for 90 min at room temperature. After this step the pins were again washed in DMF for 2 min, four times at 2 min each in methanol, and then air-dried for 10 min. Finally, side chain amino protecting groups were removed by […] (v/w/v) of trifluoracetic acid:phenol:ethanedithiol. Wash steps included 2 min in methylene chloride, two times at 5 min each in 5% […]/methylene chloride, and a final methylene chloride wash for 5 min. After drying for 10 min., pins were placed in distilled water for 2 min., transferred to a methanol bath for 18 h. and dried under vacuum for 18 h. This procedure was repeated to synthesize another set of the carboxyl-terminal 36 octapeptides to allow substantiation of the previous data. In addition other octapeptides, including the amino acid changes seen in the vanDam/Ohosone Proc. Natl. Acad. Sci. USA 86:4249 (1989) sequences, were also synthesized. Selected substitution and deletion sequences, along with similar sequences from other proteins, were also constructed. Control pins composed of amino acids in a random sequence were prepared that were not present in any of the Sm or nRNP antigen sequences. In addition, positive control pins were synthesized from a known reactive sequence of the La/SSB peptide.
Solid phase antipeptide assay. Wash steps and incubations were carried out in sealed plastic containers. Other assay steps were performed by lowering the pins into microliter plate wells. First, pins were blocked with 3% low-fat milk in PBS for 1 h at room temperature. Pins were then incubated in 1/100 dilutions of sera in 3% milk/PBS with 0.05% TWEEN® (surfactant) overnight at 4° C. in humidified sealed containers. The pin blocks were then washed four times with PBS with 0.05% TWEEN® (surfactant) for 10 min each with vigorous agitation. […]

Substance | reactivity to the PPPGMRPP motif destroyed
PPPGM (homo sapien; (3)..(10) Binding site) | Greater than 60%

Same assay, conditions: sera 1/100, Sm and nRNP precipitin positive SLE patients

Substance | antigenicity / reactivity in words
DCDEFRKI (homo sapien) [octapeptide 44] | Binding is lost
PAPGMRPP (homo sapien) | as antigenic as PPPGMRPP
PKNAKQPE (homo sapien) [octapeptide 53] | Binding is lost
PPP | no solely poly-proline sequence tested
PPPGIRGP (listed as Homo sapiens) | bound by all the Sm, nRNP sera tested
PPPGMIPP (homo sapien) | not antigenic; also recorded: does not bind
PPPGMR (not fully specified) | does not appear to significantly alter binding
PPPGMRP (PPPGMXP; homo sapien; (3)..(10) Binding site) | does not appear to significantly alter binding
PPPGMRPP (listed as Homo sapiens) | especially antigenic; also recorded: consistently the most immunoreactive; also recorded: similarly antigenic in each; also recorded: major linear antigenic epitope
PPPP (homo sapien) | no solely poly-proline sequence tested
PPPPP (homo sapien) | no solely poly-proline sequence tested

Same assay, conditions: sera 1/100, Sm and nRNP precipitin positive SLE patients; listed as nRNP A

Substance | antigenicity / reactivity in words
PPPGMIPP (homo sapien) | relatively no reactivity

Same assay, conditions: substituted or homologous octapeptides, six patient sera

Substance | original reactivity (binding) of PPPGMRPP retained
PAPGMRPP (homo sapien) | over 90%

Test system: KSm 3 monoclonal autoantibody
Assay: Binding of monoclonal antibody KSm 3 to Sm B/B' octapeptides
Set-up: species or system MRL lpr/lpr mouse
Conditions: hybridoma supernatant
From the text: (§1) Autoantibodies binding the Sm B and B′ peptides (B/B′) are commonly associated with systemic lupus erythernatosus in man and in MRL lpr/lpr mice. KSm 3 and KSm 5 were derived from an unmanipulated MRL lpr/lpr mouse using hybridoma monoclonal antibody technology. Supernatants containing KSm 3 and KSm 5 monoclonal antibodies were collected from cloned murine hybridoma cell lines in RPMI 1640 with 10% fetal bovine serum, glutamine, penicillin and streptomycin. These monoclonal autoantibodies are both of the IgG2a subclass. The linear antigenic regions of these two anti-Sm B/B′ murine monoclonal autoantibodies have been mapped using overlapping octapeptides. Unique epitopes are identified by each monoclonal. Monoclonal antibody KSm 5 recognizes the peptide, PPPGMRPP (amino acids 4-11 of SEQ ID NO:14), which is repeated three times in the Sm B polypeptide. […] Both of these regions of Sm B/B′ are major areas of antigericity for human anti-Sm autoantibodies. […] When the arginine in the sixth position PPPGMRPP (amino acids 4-11 of SEQ ID NO:14) is substituted KSm 5 binding is found in an unexpected subset of octapeptides. […] In contrast, binding of KSm 3 to PPPGIRPP (SEQ ID NO:122) is abolished when the sixth position arginine is substituted by any other amino acid. These two murine autoantibodies bind distinct linear epitopes of Sm B/B′ which are also bound by human anti-Sm B/B′ autoantibodies. […]

binding by KSm 3 in words | Substance
binds best | PGIRGPPP (homo sapien)
binds best | PPPGIRGP (listed as Homo sapiens)

Test system: sera that contain an anti-Sm precipitin in the absence of an anti-nRNP precipitin
Assay: Solid phase antipeptide assay with sera having anti-Sm precipitin alone
Assay type: binding, human
Conditions: anti-Sm precipitin without anti-nRNP precipitin
Protocol: Solid phase antipeptide assay. Wash steps and incubations were carried out in sealed plastic containers. Other assay steps were performed by lowering the pins into microliter plate wells. First, pins were blocked with 3% low-fat milk in PBS for 1 h at room temperature. Pins were then incubated in 1/100 dilutions of sera in 3% milk/PBS with 0.05% TWEEN® (surfactant) overnight at 4° C. in humidified sealed containers. The pin blocks were then washed four times with PBS with 0.05% TWEEN® (surfactant) for 10 min each with vigorous agitation. Next, each pin was incubated with anti-human gamma-chain specific IgG raised in a goat, affinity purified and conjugated to alkaline phosphatase (Jackson Immunoresearch Laboratories, West Grove, Pa.) at a {fraction (1/10,000)} dilution. Paranitrophenyl phosphate disodium was used as a substrate for alkaline phosphatase and plates were read at 405 nm with a MICROELISA Reader (Dynatech, Alexandria, Va.). Results for each plate were then standardized by comparison with positive control pins. The same control pins were used for all plates and were allowed to develop to a specific OD with a known concentration of a standard control sera.
All antigenic sites determined in this study require a positively charged amino acid. The size of these sites varies from two nonconsecutive basic amino acids to an entire octapeptide. […]

Substance | binding in words
PPPGMRPP (listed as Homo sapiens) | does not appear to be bound

Test system: antibody of patient serum
Assay: Solid phase assay of nRNP (70 kD, A, C) octapeptides with patient sera
Assay type: binding, human
Conditions: nRNP A sequences marked (*)
From the text: The sequence of the 70 kD nuclear ribonucleoprotein (nRNP) is reported by R. A. Spritz, et al., in Nucleic Acids Res. 24: 10373-10391 (1987), the teachings of which are incorporated herein. The data analysis is done the same as for the Ro/SSA and La/SSB antigens. Each sequence identified represents the binding of antibody to octapetides that exceed arbitrary criteria in the solid phase assay. The identified antigenic regions are more than two standard deviations above the mean of normal sera and are bound by more than half of the patients. For the binding to the 70 kD peptide, the threshold in the assay is A410 of 0.380. The numbers in parentheses are the sequence positions of the first amino acid in the first octapeptide that exceeds the threshold. Each identified sequence is composed of one or more octapeptides. The number of octapeptides in each sequence is the length of the sequence […]. The underlined part of the sequence is the octapeptide that is bound most by the patient serum. In some cases, another octapeptide is essentially equivalent but not underlined.

Substance | proportion of sera binding
ERDRKREKRKPKS | bound by a subset of the sera tested
LVSRSLKMRQAF | bound by a subset of the sera tested

Test system: affinity purified anti-La/SSB antibodies
Assay: Pin ELISA of La/SSB octapeptides with affinity purified anti-La/SSB antibodies
Assay type: binding, human
Conditions: affinity enriched preparation, patient E11; peak or average reactivities
Protocol: Solid Phase Anti-peptide Assay. All steps were carried out by immersing the pin blocks into microtiter plate wells. Pins were incubated in blocking buffer (1% bovine serum albumin (BSA) in phosphate buffered saline (PBS), pH 7.2) for 1 h at room temperature and then in 1:100 dilutions of sera in diluent (1% BSA and 0.05% Tween in PBS) overnight at […] in humidified containers. Pin blocks were washed four times with wash buffer (0.05% Tween in PBS) for 10 min with agitation and then immersed for 1 h at room temperature in affinity purified goat anti-human-chain specific antibody conjugated to alkaline phosphatase (Sigma Chemical Co., St. Louis, Mo.) diluted 1:1000 in diluent. After washing as above, pins were incubated in para-nitrophenyl phosphate solution at 37° C. for 2 h. Color development was read at 410 nm on a DYNATECH® MR5000 ELISA plate reader.
Samples. Sera from five normal, healthy donors and ten patients with primary SS and/or SLE were screened by pin ELISA for antibodies binding to the La/SSB octapeptides. Eight of these ten patients had both anti-Ro/SSA and anti-La/SSB precipitin forming autoantibodies, and seven of these eight had borne children with congenital heart block (CCHB). Two patients had antibodies to Ro/SSA alone. Anti-La/SSB antibodies were affinity purified from the sera of two patients on La/SSB cross-linked immunosorbents as described by Horsfall, et al., J. Immunol. Meth. 104:43 (1987).
Anti-La/SSB antibodies from two patients have been affinity purified on La/SSB cross-linked immunosorbents. […] The affinity enriched preperation binds 17 of the 18 previously identified epitopes, the exception being epitope 17 (octapeptide 379); however, this preperation does bind octapeptides adjacent to epitope 17, particularly octapeptides 380 and 382. Those putative epitopes in which the binding is most enriched include epitopes 2, 3, 6, 9, 10, 12, 13 and 15. These same epitopes appear enriched whether peak or average reactivities for each putative epitope are compared. Essentially the same results have been obtained from an affinity enriched preparation of the anti-La/SSB from a second patient.

enrichment of binding relative to the serum | Substance
most enriched | EGIILFKEKAK [epitope 13]
most enriched | GEIKWIDFVRGAK [epitope 6]
most enriched | IFVVFDSIE [epitope 9]
most enriched | KETDLLILFKDDYFA [epitope 10]
most enriched | REDLHILF [epitope 15]
most enriched | TDFNVIVEA [epitope 12]
most enriched | WVPLEIMIKFNR [epitope 3]

Substance | enrichment of binding relative to the serum
ICHQIEYYFGDFNLPRDKFLK [epitope 2] | most enriched

Same assay, conditions: preparation from patient E11

binding by affinity enriched anti-La/SSB preparation | Substance
does bind | octapeptide 380: La/SSB octapeptide adjacent to epitope 17, starting at amino acid 380 (GPVKRARE; UniProt P05455 380-387, looked up, fragment)
does bind | octapeptide 382: La/SSB octapeptide adjacent to epitope 17, starting at amino acid 382 (VKRAREET; UniProt P05455 382-389, looked up, fragment)

Test system: KSm 5 monoclonal autoantibody
Assay: Binding of monoclonal antibody KSm 5 to Sm B/B' octapeptides
Set-up: species or system MRL lpr/lpr mouse
Conditions: hybridoma supernatant
From the text: as §1

binding by KSm 5 in words | Substance
recognizes | PPPGMRPP (listed as Homo sapiens)

Source: patent US6897287B1, “Ro/SSA peptide reagents for diagnosis of autoantibodies” (Oklahoma Medical Research Foundation, priority 1990, dated 2005)
